Patent publication US20240269155A1, “METHODS AND USES OF BORON COMPOUNDS IN THE TREATMENT OF NONTUBERCULOUS MYCOBACTERIUM INFECTIONS AND PHARMACEUTICAL COMPOSITIONS FOR TREATMENT OF SAME” (priority 2022, published 2024)
Where two headings read alike, the source gives them in different places.

Columns and labels:
[1] = test system: clinical isolates of M. abscessus complex; assay: MBC against clinical isolates of M. abscessus complex; format: cell-based, M. abscessus and M. massiliense; settings: for Classification: from MBC/MIC ratio
M. intercelleulare = assay: MIC determination (CLSI M24-A2); format: cell-based, Mycobacterium intercelleulare
Protocol: (§1) The in vitro activity of the parent boron compound described herein was assessed by standard testing procedures such as the determination of minimum inhibitory concentration (MIC) as described in Clinical and Laboratory Standards Institute (CLSI) document M24-A2. Lower MIC values indicate high antibacterial activity, while higher MIC values indicate a reduced antibacterial activity. Generally, MIC values of about ≤2 mg/L indicate a good therapeutic (i.e., suitable for therapy) potency for antibacterial drugs, while MIC values of ≥8 mg/L indicate a lack of therapeutically useful activity for a test compound.
(§2) (MIC ranges from 0.063-2 mg/L).

Mycobacteria pathogens = assay: MIC against mycobacteria pathogens, summary over species; format: cell-based, nontuberculous Mycobacterium; settings: for MIC range: M. intercelleulare, M. fortuitum, M. peregrinum, M. smegmatis, M. massiliense
M. fortuitum = assay: MIC determination (CLSI M24-A2); format: cell-based, Mycobacterium fortuitum
Protocol: as §1, §2

M. avium = assay: MIC determination (CLSI M24-A2); format: cell-based, Mycobacterium avium
Protocol: as §1, §2

M. smegmatis = assay: MIC determination (CLSI M24-A2); format: cell-based, Mycobacterium smegmatis
Protocol: as §1, §2

M. abscessus = assay: MIC determination (CLSI M24-A2); format: cell-based, Mycobacterium abscessus
Protocol: as §1, §2

[2] = Rat PK model, intravenous or oral gavage; format: in vivo, SD rats; settings: 5 mg/kg, parent compound Example 4 quantified
Text: To further elucidate the therapeutic potential of drug compounds, pharmacokinetic (PK) data is often used to establish key parameters predictive of a therapy outcome, such as the area under the curve (AUC) of a plot monitoring the change in systemic drug concentration over time. A higher AUC value indicates a greater exposure to the drug, commonly associated with a greater therapeutic potential due to a higher amount of drug available to combat the infection. In contrast, a lower AUC value indicates a reduced exposure to the drug, resulting in a reduced amount of antibiotic available to combat bacterial infections. To that end, the compounds described herein were tested in the rat PK model of oral administration performed analogously to the methods described in the monograph Current Protocols in Pharmacology, 2005, 7.1.1-7.1.26, John Wiley & Sons, Inc.
All the compounds were administered to SD rats (The rats were randomly divided into groups with 3 rats in each group) by intravenous or oral gavage. The prodrugs convert to the parent drug molecule in vivo. Therefore, only the parent compound Example 4 was analyzed and quantified in all test samples. […] Furthermore, based on the known comparison of rodent tests to human data (such as known species-to-species PK scaling), this is possible with a lower dosage for therapy in humans.

M. massiliense = assay: MIC determination (CLSI M24-A2); format: cell-based, Mycobacterium massiliense
Protocol: as §1, §2

M. peregrinum = assay: MIC determination (CLSI M24-A2); format: cell-based, Mycobacterium peregrinum
Protocol: as §1, §2

M. gordonae = assay: MIC determination (CLSI M24-A2); format: cell-based, Mycobacterium gordonae
Protocol: as §1, §2

M. abscessus CIP108297 = assay: M. abscessus mouse lung infection model; format: in vivo, BALB/c mice
Protocol: To establish the efficacy of the compounds described herein in vivo, an M. abscessusmouse lung infection model was performed. Groups of BALB/c mice (The mice were randomly divided into groups with 6 mice in each group) were administered cyclophosphamide one week before infection, and then inoculated intranasally with M. abscessus CIP108297 (10^7 CFU/mouse). Three days after infection, the mice were subsequently treated with 10 mg/kg of the compound of Example 4 or GSK656 administered daily by subcutaneous, or 100 mg/kg linezolid (an approved antibiotic) or 200 mg/kg clarithromycin (an approved antibiotic) administered daily by oral gavage. […] This may be attributed to the surprising finding of lower MBC in the compound of Example 4.

[3] = test system: clinical isolates of M. abscessus complex; assay: MIC against clinical isolates of M. abscessus complex; format: cell-based, M. abscessus and M. massiliense
[4] = Lung distribution study in mouse; format: in vivo, Balb/C mouse; settings: 10 mg/kg iv
M. scrofulaceum = assay: MIC determination (CLSI M24-A2); format: cell-based, Mycobacterium scrofulaceum
Protocol: as §1, §2

[5] = 20 clinical isolates of M. abscessus complex

## [(2S,6R)-2-(Aminomethyl)-4-bora-3,5,8-trioxatricyclo[7.3.1.04,13]trideca-1(12),10-dien-6-yl]methanol hydrochloride [Example 4]
[1]
  MBC: 0.125 µg/mL
[1]; [5]
  MBC compared with GSK656: much lower MBC against all isolates tested
  bactericidal/bacteriostatic classification over the isolates: bactericidal against half of the isolates
[1]; clinical isolate A35
  MBC: 0.25 µg/mL
  Classification: Bactericidal (bactericidal if the MBC/MIC ratio was <4)
[1]; clinical isolate A51
  MBC: 0.25 µg/mL
  Classification: Bactericidal (bactericidal if the MBC/MIC ratio was <4)
[1]; clinical isolate A197
  MBC: 1 µg/mL
  Classification: Bacteriostatic (bacteriostatic if the ratio was >4)
[1]; clinical isolate A213
  MBC: 0.25 µg/mL
  Classification: Bactericidal (bactericidal if the MBC/MIC ratio was <4)
[1]; clinical isolate A215
  MBC: 0.5 µg/mL
  Classification: Bacteriostatic (bacteriostatic if the ratio was >4)
[1]; clinical isolate A217
  MBC: 0.5 µg/mL
  Classification: Bacteriostatic (bacteriostatic if the ratio was >4)
[1]; clinical isolate A222
  MBC: 0.25 µg/mL
  Classification: Bactericidal (bactericidal if the MBC/MIC ratio was <4)
[1]; clinical isolate A232
  Classification: Bactericidal (bactericidal if the MBC/MIC ratio was <4)
[1]; clinical isolate A255
  MBC: 0.25 µg/mL
  Classification: Bactericidal (bactericidal if the MBC/MIC ratio was <4)
[1]; clinical isolate A268
  MBC: 2 µg/mL
  Classification: Bacteriostatic (bacteriostatic if the ratio was >4)
[1]; clinical isolate A274
  MBC: 2 µg/mL
  Classification: Bacteriostatic (bacteriostatic if the ratio was >4)
[1]; clinical isolate A311
  MBC: 0.25 µg/mL
  Classification: Bactericidal (bactericidal if the MBC/MIC ratio was <4)
[1]; clinical isolate A353
  MBC: 0.25 µg/mL
  Classification: Bactericidal (bactericidal if the MBC/MIC ratio was <4)
[1]; clinical isolate G73
  MBC: 1 µg/mL
  Classification: Bacteriostatic (bacteriostatic if the ratio was >4)
[1]; clinical isolate G74
  MBC: 1 µg/mL
  Classification: Bacteriostatic (bacteriostatic if the ratio was >4)
[1]; clinical isolate G87
  MBC: 0.5 µg/mL
  Classification: Bacteriostatic (bacteriostatic if the ratio was >4)
[1]; clinical isolate G104
  MBC: 0.25 µg/mL
  Classification: Bactericidal (bactericidal if the MBC/MIC ratio was <4)
[1]; clinical isolate G110
  MBC: 1 µg/mL
  Classification: Bacteriostatic (bacteriostatic if the ratio was >4)
[1]; clinical isolate G164
  MBC: 0.25 µg/mL
  Classification: Bactericidal (bactericidal if the MBC/MIC ratio was <4)
[1]; clinical isolate G182
  MBC: 1 µg/mL
  Classification: Bacteriostatic (bacteriostatic if the ratio was >4)
M. intercelleulare
  MIC: 2 µg/mL
Mycobacteria pathogens; M. avium and M. intercelleulare
  fold more potent than GSK656 (MIC): 4 fold
Mycobacteria pathogens; across M. scrofulaceum, M. gordonae, M. avium, M. abscessus
  MIC range: 0.063 to 2 µg/mL
Mycobacteria pathogens; rapidly growing mycobacteria (RGM): M. abscessus
  MIC range: 0.063 to 0.125 µg/mL
M. fortuitum
  MIC: 0.125 µg/mL
M. avium
  MIC: 2 µg/mL
M. smegmatis
  MIC: 0.125 µg/mL
M. abscessus
  MIC: 0.063 µg/mL
[2]; iv
  AUC: 5661 ng·h/mL
  Cmax: 6776 ng/mL
[2]; oral
  AUC: 856 ng·h/mL
  Cmax: 139 ng/mL
  Oral bioavailability: 15%
M. massiliense
  MIC: 0.063 µg/mL
M. peregrinum
  MIC: 0.125 µg/mL
M. gordonae
  MIC: 0.5 µg/mL
M. abscessus CIP108297; 10 mg/kg daily subcutaneous, treatment from 3 days after infection, lung CFU at 2 weeks post-infection
  reduction in bacteria in the lungs compared to the untreated groups: ~7.8 log 10 CFU
M. abscessus CIP108297; 2-weeks post-infection, treated group
  lung pathology, H&E stained tissue sections: pathologic changes were rare and lung lesions were negligible
M. abscessus CIP108297; both 10 mg/kg daily subcutaneous, 2 weeks post-infection
  organisms in the lungs compared to animals treated with GSK656: reduced markedly
[3]
  MIC: 0.063 µg/mL
[3]; clinical isolate A35
  MIC: 0.063 µg/mL
[3]; clinical isolate A51
  MIC: 0.063 µg/mL
[3]; clinical isolate A197
  MIC: 0.063 µg/mL
[3]; clinical isolate A215
  MIC: 0.063 µg/mL
[3]; clinical isolate A217
  MIC: 0.063 µg/mL
[3]; clinical isolate A222
  MIC: 0.063 µg/mL
[3]; clinical isolate A255
  MIC: 0.063 µg/mL
[3]; clinical isolate A311
  MIC: 0.063 µg/mL
[3]; clinical isolate G73
  MIC: 0.063 µg/mL
[3]; clinical isolate G74
  MIC: 0.063 µg/mL
[3]; clinical isolate G87
  MIC: 0.063 µg/mL
[3]; clinical isolate G110
  MIC: 0.063 µg/mL
[3]; clinical isolate G164
  MIC: 0.063 µg/mL
[3]; clinical isolate G182
  MIC: 0.063 µg/mL
[4]; analyte Example 4
  AUC ratio (lung/plasma): 2.39
[4]; analyte Example 4, lung
  AUClast: 12822 ng·h/g
  t1/2: 1.46 h
[4]; analyte Example 4, plasma
  AUClast: 5359 ng·h/mL
  t1/2: 1.87 h
M. scrofulaceum
  MIC: 0.25 µg/mL
